Laboratory results published in patent publication US7192941B2, “Estradiol metabolites for the treatment of pulmonary hypertension” (priority 2003, dated 2007).

Columns and labels:
Assay type in all cases: in vivo, male Sprague Dawley rats
[1] = test system: monocrotaline-induced pulmonary hypertension; test: Monocrotaline-induced pulmonary hypertension in rats: organ weights and hemodynamics (central venous pressure); conditions: MCT 60 mg/kg s.c., 10 μg/kg/hour by osmotic minipump, 21 days; for adverse consequences associated with monocrotaline treatment (pulmonary hypertension, increased lung weight, cardiac hypertrophy, right ventricular hypertrophy): FIGS. 1-4
Protocol: (§1) A total of twenty-seven, male Sprague Dawley rats (Charles River, Wilmington, Mass.) (378 +/−12 grams) were utilized in this experiment. Animals were housed in the University of Pittsburgh Medical Center animal care facility (temperature 22° C., light cycle 12 hours, relative humidity 55%). Animals were fed Pro Lab RHM 3000 rodent diet (PMI Nutrition, Inc, St Louis, Mo.) and were given water ad libitum. Institutional guidelines for animal welfare were followed, and the Animal Care and Use Committee approved experimental protocols.
(§2) Animals were randomly assigned to receive subcutaneously saline (1 ml/kg, n=6) or monocrotaline (Sigma, St Louis, Mo.) (MCT, 60 mg/kg subcutaneously) (n=21). Monocrotaline is an agent known to induce pulmonary hypertension. Six hours after the initial injection, control animals were implanted with osmotic minipumps (model 2ML4, Alza, Palo Alto, Calif.) containing vehicle (polyethylene glycol 400, 2.5 μl/hour) (Sigma, St Louis, Mo.), whereas MCT treated animals were implanted with osmotic minipumps containing either vehicle (MCT group; n=7), 2-hydroxyestradiol (Steraloids, Newport, R.I.) (10 μg/kg/hour, MCT+2HE group, n=7) or 2-methoxyestradiol (Steraloids, Newport, R.I.) (10 μg/kg/hour, MCT+2ME group, n=7). Assignment to the MCT, MCT+2HE, and MCT+2ME groups was conducted randomly.
After 21 days animals were weighed, anesthetized with pentobarbital (Sigma, St Louis, Mo.) (50 mg/kg) intraperitoneally, and instrumented for measurements of blood pressure, heart rate and central venous pressure. A PE-50 catheter was inserted into the right jugular vein and advanced approximately one inch and connected to a low-pressure analyzer (LPA, Micro-Med., Inc., Louisville Ky.) for continuous measurements of central venous pressure. […]
Animals were killed by an overdose of anesthetic, and the heart and lungs were removed and weighed. […] Both ventricles were weighed and the right ventricle to left ventricle plus septum ratio was calculated. […]

[2] = test system: proliferating cell nuclear antigen (PCNA); test: Cell proliferation (PCNA immunostaining) in lungs, right ventricle and main pulmonary artery of monocrotaline-treated rats; conditions: vs MCT group, 10 μg/kg/hour, 21 days, p<0.001; for inhibition of proliferative response (PCNA staining) in the lungs: FIG. 6A; for inhibition of proliferative response (PCNA staining) in the right ventricle: FIG. 6B; for inhibition of proliferative response (PCNA staining) in the main pulmonary artery: FIG. 6C
Protocol: as §1, §2
The fixed specimens were embedded in paraffin and cut into 4-micron-thick sections for subsequent light microscopy and immunohistochemical analysis.
For the assessment of proliferation, the proliferating cell nuclear antigen (PCNA) was labeled using the primary monoclonal mouse antibody ( 1/200 dilution; Dako, Carpenteria, Calif.) and VEGF expression was measured using a rabbit polyclonal antibody ( 1/50 dilution, Lab Vision, Fremont, Calif.). A polyclonal ED1 antibody (Serotec, Raleigh, N.C.) specific for the monocyte/macrophage cytoplasmatic antigen was used to label vascular (main pulmonary artery) and pulmonary macrophages. For measurement of nonspecific staining, the primary antibody was replaced with phosphate buffered saline (PBS). Sections were washed and further developed according to the directions of the manufacturer (Dako Corporation, Carpinteria, Calif.) using the LSAB2 kit that contained a second antibody linked to […]. Immunochemical staining for PCNA and VEGF were assessed quantitatively with a SAMBA 4000 image analyzer (Image Products International, Chantilly, Va.) using specialized computer software designed for immunostaining analysis (Immuno-Analysis, version 4.1, Microsoft, Richmond, Wash.). The software set density threshold values by averaging several fields on the negative control tissues in which the primary antibody was replaced with PBS. Background subtraction was then performed on every tissue. Ten high power fields (×400) were assessed for staining density, wall thickness or positively marked cells for ED-1. The results for PCNA and VEGF are reported as the labeling index, which represents the percentage of the total examined area that stained positively. Staining intensity of positive areas was also assessed (mean optical density), and a mean quick score was then calculated (mean optical density×labeling index). The inflammatory response data are expressed as the total number of ED1+ cells per ten high power fields
Statistical analyses were performed using the Number Cruncher Statistical software program (Kaysville, Utah). Group comparisons were performed by a one-factor analysis of variance (1-F ANOVA), followed by post-hoc comparison using the Fisher's LSD test. All data are presented as mean ±S.E.M.

[3] = test system: vascular endothelial growth factor (VEGF) expression; test: VEGF expression (immunohistochemistry) in lungs of monocrotaline-treated rats; conditions: MCT rats, 10 μg/kg/hour, 21 days, mean ±S.E.M., Control 34.2±2.2, MCT 42.8±2.6, p=0.482
Protocol: as §1
Animals were randomly assigned to receive subcutaneously saline (1 ml/kg, n=6) or monocrotaline (Sigma, St Louis, Mo.) (MCT, 60 mg/kg subcutaneously) (n=21). […]
For the assessment of proliferation, the proliferating cell nuclear antigen (PCNA) was labeled using the primary monoclonal mouse antibody ( 1/200 dilution; Dako, Carpenteria, Calif.) and VEGF expression was measured using a rabbit polyclonal antibody ( 1/50 dilution, Lab Vision, Fremont, Calif.). […] Immunochemical staining for PCNA and VEGF were assessed quantitatively with a SAMBA 4000 image analyzer (Image Products International, Chantilly, Va.) using specialized computer software designed for immunostaining analysis (Immuno-Analysis, version 4.1, Microsoft, Richmond, Wash.). […] Ten high power fields (×400) were assessed for staining density, wall thickness or positively marked cells for ED-1. […]

[4] = test system: small size pulmonary arteries; test: Vascular remodeling: wall/media thickness of small size pulmonary arteries (smooth muscle alpha-actin staining) in monocrotaline-treated rats; conditions: vs MCT group (wall thickness increased by 87% vs control); 10 μg/kg/hour, 21 days; p<0.001; FIG. 9
Protocol: as §1
Animals were randomly assigned to receive subcutaneously saline (1 ml/kg, n=6) or monocrotaline (Sigma, St Louis, Mo.) (MCT, 60 mg/kg subcutaneously) (n=21). Monocrotaline is an agent known to induce pulmonary hypertension. […]
For assessment of vascular remodeling, vascular smooth muscle cells in pulmonary arteries were stained with smooth muscle alpha-actin Ab-1 mouse monoclonal antibody ( 1/100 dilution, Lab Vision, Fremont, Calif.). The wall and media thickness were measured in small size pulmonary arteries (50–200 microns) using commercial imaging software. Only vessels with an approximately circular profile were analyzed. […]

| SMILES | adverse consequences associated with monocrotaline treatment (pulmonary hypertension, increased lung weight, cardiac hypertrophy, right ventricular hypertrophy) [1] | inhibition of proliferative response (PCNA staining) in the lungs [2] | inhibition of proliferative response (PCNA staining) in the right ventricle [2] | inhibition of proliferative response (PCNA staining) in the main pulmonary artery [2] | VEGF labeling index (percent of the lung tissue stained positive for VEGF) [3] | attenuation of MCT-induced hypertrophy of the media (wall thickness, small size pulmonary arteries) [4] | central venous pressure ([1]; FIG. 5) |
| --- | --- | --- | --- | --- | --- | --- | --- |
| C[C@]12CC[C@@H]3c4cc(O)c(O)cc4CC[C@H]3[C@@H]1CC[C@@H]2O [2HE, estra-1,3,5 (10)-triene-2,3,17-triol (17β)] | did not demonstrate the same level of adverse consequences | −60% | −81% | −83% | 37.6±3.3% | −50% |  |
| COc1cc2c(cc1O)CC[C@@H]1[C@@H]2CC[C@]2(C)[C@@H](O)CC[C@@H]12 [2ME, estra-1,3,5 (10)-triene-2-methoxy-3, 17-diol (17β)] | did not demonstrate the same level of adverse consequences | −70% | −77% | −94% | 37.6±3.9% | −40% | especially effective at reducing central venous pressure |
